Molecules are shown by their SMILES.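 Briefly, cells in 96-well plates were exposed to five compound concentrations for 48 h, and endpoints were estimated by linear interpolation. TGI: concentration producing complete growth inhibition.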 A value given as a limit tells only on which side of the number the result lay.

One assay relates to 786-0 renal. The assay can be described thus: NCI tumour cell line growth inhibition, 48 h.
For `CC(=O)C1=C(C)NC2C=CC=CN12` (centres undefined), the TGI is greater than 100 µM.

In turn, `Cc1cc(C)[n+](CCOc2ccc(/C(=C(/Cl)c3ccccc3)c3ccccc3)cc2)c(C)c1` gave a TGI of 8.35 µM.

In the case of `CC(=O)Nc1cc2c(s1)CCC1CC(=O)NN=C21` (centres undefined), the TGI is greater than 100 µM.

Regarding `CC(C)C(=O)/C=C/c1ccc(Br)cc1`, the TGI amounted to 23.2 µM.

A further assay deals with CCRF-CEM leukemia. As to the kind of experiment: NCI tumour cell line growth inhibition, 48 h.
Molecule `CC(=O)C1=C(C)NC2C=CC=CN12` (centres undefined) returned a TGI greater than 100 µM.

Molecule `Cc1cc(C)[n+](CCOc2ccc(/C(=C(/Cl)c3ccccc3)c3ccccc3)cc2)c(C)c1` gave a TGI of 3.28 µM.

For `CC(=O)Nc1cc2c(s1)CCC1CC(=O)NN=C21` (centres undefined), the TGI is greater than 100 µM.

`CC(C)C(=O)/C=C/c1ccc(Br)cc1` returned a TGI of 21.5 µM.

The subject of a further assay is SNB-19 CNS. The assay can be described thus: NCI tumour cell line growth inhibition, 48 h.
Take `CC(=O)C1=C(C)NC2C=CC=CN12` (centres undefined): the TGI was greater than 100 µM.

As to `Cc1cc(C)[n+](CCOc2ccc(/C(=C(/Cl)c3ccccc3)c3ccccc3)cc2)c(C)c1`, the TGI worked out at 5.21 µM.

As to `CC(=O)Nc1cc2c(s1)CCC1CC(=O)NN=C21` (centres undefined), the TGI was greater than 100 µM.

The molecule `CC(C)C(=O)/C=C/c1ccc(Br)cc1` returned a TGI of 29.8 µM.

The next assay concerns M14 melanoma. As to the kind of experiment: NCI tumour cell line growth inhibition, 48 h.
The molecule `CC(=O)C1=C(C)NC2C=CC=CN12` (centres undefined) yielded a TGI greater than 100 µM.

As for `Cc1cc(C)[n+](CCOc2ccc(/C(=C(/Cl)c3ccccc3)c3ccccc3)cc2)c(C)c1`, the TGI was 6.88 µM.

Regarding `CC(=O)Nc1cc2c(s1)CCC1CC(=O)NN=C21` (centres undefined), the TGI was greater than 100 µM.

Regarding `CC(C)C(=O)/C=C/c1ccc(Br)cc1`, the TGI was 32.4 µM.

For another assay, the system named is KM20L2 colon. The assay can be described thus: NCI tumour cell line growth inhibition, 48 h.
On to `CC(=O)C1=C(C)NC2C=CC=CN12` (centres undefined), for which the TGI was greater than 100 µM.

`Cc1cc(C)[n+](CCOc2ccc(/C(=C(/Cl)c3ccccc3)c3ccccc3)cc2)c(C)c1` showed a TGI of 12.7 µM.

On to `CC(=O)Nc1cc2c(s1)CCC1CC(=O)NN=C21` (centres undefined), for which the TGI was greater than 100 µM.

`CC(C)C(=O)/C=C/c1ccc(Br)cc1` registered a TGI of 21.5 µM.

The next assay has as its system DMS 114 small cell lung. As to the kind of experiment: NCI tumour cell line growth inhibition, 48 h.
Regarding `CC(=O)C1=C(C)NC2C=CC=CN12` (centres undefined), the TGI is greater than 100 µM.

As to `Cc1cc(C)[n+](CCOc2ccc(/C(=C(/Cl)c3ccccc3)c3ccccc3)cc2)c(C)c1`, the TGI was 5.43 µM.

`CC(=O)Nc1cc2c(s1)CCC1CC(=O)NN=C21` (centres undefined) had a TGI greater than 100 µM.

Take `CC(C)C(=O)/C=C/c1ccc(Br)cc1`: the TGI is 37 µM.

In the next assay the test system is RPMI-8226 leukemia. The assay can be described thus: NCI tumour cell line growth inhibition, 48 h.
As to `CC(=O)C1=C(C)NC2C=CC=CN12` (centres undefined), the TGI was greater than 100 µM.

Regarding `Cc1cc(C)[n+](CCOc2ccc(/C(=C(/Cl)c3ccccc3)c3ccccc3)cc2)c(C)c1`, the TGI turned out to be 3.59 µM.

In the case of `CC(=O)Nc1cc2c(s1)CCC1CC(=O)NN=C21` (centres undefined), the TGI is greater than 100 µM.

As for `CC(C)C(=O)/C=C/c1ccc(Br)cc1`, the TGI was found to be 39.2 µM.

The next assay has as its system DLD-1 colon. As to the kind of experiment: NCI tumour cell line growth inhibition, 48 h.
Regarding `CC(=O)C1=C(C)NC2C=CC=CN12` (centres undefined), the TGI is greater than 100 µM.

In the case of `Cc1cc(C)[n+](CCOc2ccc(/C(=C(/Cl)c3ccccc3)c3ccccc3)cc2)c(C)c1`, the TGI worked out at 15.8 µM.

Consider `CC(C)C(=O)/C=C/c1ccc(Br)cc1`, for which the TGI is 20.3 µM.

For another assay, the system named is M19-MEL melanoma. As to the kind of experiment: NCI tumour cell line growth inhibition, 48 h.
`CC(=O)C1=C(C)NC2C=CC=CN12` (centres undefined) returned a TGI greater than 100 µM.

In turn, `Cc1cc(C)[n+](CCOc2ccc(/C(=C(/Cl)c3ccccc3)c3ccccc3)cc2)c(C)c1` showed a TGI of 1.84 µM.

Turning to `CC(=O)Nc1cc2c(s1)CCC1CC(=O)NN=C21` (centres undefined), the TGI is greater than 100 µM.

With `CC(C)C(=O)/C=C/c1ccc(Br)cc1`, the TGI turned out to be 28.9 µM.

Another assay has as its system SNB-78 CNS. As to the kind of experiment: NCI tumour cell line growth inhibition, 48 h.
`CC(=O)C1=C(C)NC2C=CC=CN12` (centres undefined) yielded a TGI greater than 100 µM.

Regarding `Cc1cc(C)[n+](CCOc2ccc(/C(=C(/Cl)c3ccccc3)c3ccccc3)cc2)c(C)c1`, the TGI amounted to 19.5 µM.

In turn, `CC(=O)Nc1cc2c(s1)CCC1CC(=O)NN=C21` (centres undefined) registered a TGI greater than 100 µM.

On to `CC(C)C(=O)/C=C/c1ccc(Br)cc1`, for which the TGI is greater than 100 µM.

A further assay concerns UO-31 renal. As to the kind of experiment: NCI tumour cell line growth inhibition, 48 h.
`CC(=O)C1=C(C)NC2C=CC=CN12` (centres undefined) displayed a TGI greater than 100 µM.

As for `Cc1cc(C)[n+](CCOc2ccc(/C(=C(/Cl)c3ccccc3)c3ccccc3)cc2)c(C)c1`, the TGI amounted to 35.7 µM.

Molecule `CC(=O)Nc1cc2c(s1)CCC1CC(=O)NN=C21` (centres undefined) gave a TGI greater than 100 µM.

The molecule `CC(C)C(=O)/C=C/c1ccc(Br)cc1` gave a TGI of 30.1 µM.

The next assay relates to OVCAR-3 ovarian. The assay can be described thus: NCI tumour cell line growth inhibition, 48 h.
On to `CC(=O)C1=C(C)NC2C=CC=CN12` (centres undefined), for which the TGI is greater than 100 µM.

Take `Cc1cc(C)[n+](CCOc2ccc(/C(=C(/Cl)c3ccccc3)c3ccccc3)cc2)c(C)c1`: the TGI was found to be 4.07 µM.

`CC(=O)Nc1cc2c(s1)CCC1CC(=O)NN=C21` (centres undefined) had a TGI greater than 100 µM.

In turn, `CC(C)C(=O)/C=C/c1ccc(Br)cc1` yielded a TGI of 27.3 µM.

A further assay has as its system LXFL 529 NSCLC. The assay can be described thus: NCI tumour cell line growth inhibition, 48 h.
The molecule `Cc1cc(C)[n+](CCOc2ccc(/C(=C(/Cl)c3ccccc3)c3ccccc3)cc2)c(C)c1` displayed a TGI of 1.82 µM.

Turning to `CC(=O)Nc1cc2c(s1)CCC1CC(=O)NN=C21` (centres undefined), the TGI was greater than 100 µM.

With `CC(C)C(=O)/C=C/c1ccc(Br)cc1`, the TGI was found to be 33.8 µM.

The subject of the next assay is U251 CNS. As to the kind of experiment: NCI tumour cell line growth inhibition, 48 h.
`CC(=O)C1=C(C)NC2C=CC=CN12` (centres undefined) yielded a TGI greater than 100 µM.

In turn, `Cc1cc(C)[n+](CCOc2ccc(/C(=C(/Cl)c3ccccc3)c3ccccc3)cc2)c(C)c1` gave a TGI of 4.14 µM.

`CC(=O)Nc1cc2c(s1)CCC1CC(=O)NN=C21` (centres undefined) gave a TGI greater than 100 µM.

With `CC(C)C(=O)/C=C/c1ccc(Br)cc1`, the TGI came to 22.9 µM.

(Values after PubChem BioAssay (NCI).)
